Molecular target: T1, MLLT1 (Homo sapiens, UniProt Q03111)
T1 construct: endogenous in cells; host or cells: MV4-11 (ATCC CRL-9591)
T1 sequence (Q03111 1-559): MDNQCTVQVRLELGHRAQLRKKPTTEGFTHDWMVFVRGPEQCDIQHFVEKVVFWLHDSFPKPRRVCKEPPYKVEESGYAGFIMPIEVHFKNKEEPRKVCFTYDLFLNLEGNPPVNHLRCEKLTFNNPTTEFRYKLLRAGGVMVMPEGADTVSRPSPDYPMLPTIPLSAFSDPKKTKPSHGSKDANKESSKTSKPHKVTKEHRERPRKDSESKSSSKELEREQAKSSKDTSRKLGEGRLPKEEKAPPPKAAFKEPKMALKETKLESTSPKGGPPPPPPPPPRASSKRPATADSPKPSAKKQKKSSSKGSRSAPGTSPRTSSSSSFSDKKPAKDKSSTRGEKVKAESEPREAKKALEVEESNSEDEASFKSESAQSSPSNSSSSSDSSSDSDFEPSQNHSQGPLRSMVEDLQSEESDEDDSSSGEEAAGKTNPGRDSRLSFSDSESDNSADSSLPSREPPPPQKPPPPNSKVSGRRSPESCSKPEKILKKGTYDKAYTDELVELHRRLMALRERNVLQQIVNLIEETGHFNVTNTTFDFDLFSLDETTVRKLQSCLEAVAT
Assay: MLLT1 Degradation Assay (JESS automated chemiluminescent detection, MV4-11 cells)
Assay type: cell-based
Details: 24h, with respect to DMSO control; for MLLT1 % Degradation @ 0.01 µM: 0.01 µM (10 nM) test compound; for MLLT1 % Degradation @ 0.1 µM: 0.1 µM (100 nM) test compound; for MLLT 1 % Degradation @ 1 µM: 1 µM (1000 nM) test compound
In short: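 MV4-11 cells were treated for 24 h at 37 °C, 5% CO2 with compound at 1000, 100 and 10 nM (0.1% DMSO). MLLT1 was quantified by automated capillary chemiluminescent immunodetection (JESS). Band peak areas were expressed as % degradation relative to DMSO control.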

SMILES | MLLT1 % Degradation @ 0.01 µM | MLLT1 % Degradation @ 0.1 µM | MLLT 1 % Degradation @ 1 µM
CN1CCC[C@@H]1c1cc2cnc(NC(=O)c3ccc(C4CCN(c5cccc6c5C(=O)N(C5CCC(=O)NC5=O)C6=O)CC4)cc3)cc2[nH]1 (stereo partly drawn) [Example 15, 4-(1-(2-(2,6-dioxopiperidin-3-yl)-1,3-dioxoisoindolin-4-yl)piperidin-4-yl)-N-(2-((R)-1-methylpyrrolidin-2-yl)-1H-pyrrolo[3,2-c]pyridin-6-yl)benzamide] | B (Category B: 50% ≤ B < 75% degradation) | A (Category A: A ≥ 75% degradation) | B (Category B: 50% ≤ B < 75% degradation)
CN1CCC[C@@H]1c1[nH]c2cc(NC(=O)CCCCCCNc3cccc4c3C(=O)N(C3CCC(=O)NC3=O)C4=O)ncc2c1Cl (stereo partly drawn) [Example 33, N-{3-chloro-2-[(2R)-1-methylpyrrolidin-2-yl]-1H-pyrrolo[3,2-c]pyridin-6-yl}-7-{[2-(2,6-dioxopiperidin-3-yl)-1,3-dioxoisoindol-4-yl]amino}heptanamide] | B (Category B: 50% ≤ B < 75% degradation) | A (Category A: A ≥ 75% degradation) | A (Category A: A ≥ 75% degradation)
CN1CCC[C@@H]1c1cc2cnc(NC(=O)c3ccc(-c4cnn(CCCC#Cc5ccc6c(c5)CN(C5CCC(=O)NC5=O)C6=O)c4)cc3)cc2[nH]1 (stereo partly drawn) [Example 22, 4-(1-(5-(2-(2,6-dioxopiperidin-3-yl)-1-oxoisoindolin-5-yl)pent-4-yn-1-yl)-1H-pyrazol-4-yl)-N-(2-((R)-1-methylpyrrolidin-2-yl)-1H-pyrrolo[3,2-c]pyridin-6-yl)benzamide] | A (Category A: A ≥ 75% degradation) | A (Category A: A ≥ 75% degradation) | A (Category A: A ≥ 75% degradation)
CN1CCC[C@@H]1c1cc2cnc(NC(=O)COCCCCNc3cccc4c3C(=O)N(C3CCC(=O)NC3=O)C4=O)cc2[nH]1 (stereo partly drawn) [Example 40, 2-(4-((2-(2,6-dioxopiperidin-3-yl)-1,3-dioxoisoindolin-4-yl)amino)butoxy)-N-(2-((R)-1-methylpyrrolidin-2-yl)-1H-pyrrolo[3,2-c]pyridin-6-yl)acetamide] | – | C (Category C: 25% ≤ C < 50% degradation) | B (Category B: 50% ≤ B < 75% degradation)
CN1CCC[C@@H]1c1cc2cnc(NC(=O)c3ccc(-c4cnn(CCCC#Cc5cccc(C(=O)N[C@H]6CCC(=O)NC6=O)n5)c4)cc3)cc2[nH]1 [Example 62, N-((S)-2,6-dioxopiperidin-3-yl)-6-(5-(4-(4-((2-((R)-1-methylpyrrolidin-2-yl)-1H-pyrrolo[3,2-c]pyridin-6-yl)carbamoyl)phenyl)-1H-pyrazol-1-yl)pent-1-yn-1-yl) picolinamide] | B (Category B: 50% ≤ B < 75% degradation) | A (Category A: A ≥ 75% degradation) | B (Category B: 50% ≤ B < 75% degradation)
C[C@@H](C#Cc1cccc2c1CN(C1CCC(=O)NC1=O)C2=O)Oc1ccc(C(=O)Nc2cc3[nH]c([C@H]4CCCN4C)cc3cn2)cc1 (stereo partly drawn) [Example 24, 4-(((2S)-4-(2-(2,6-dioxopiperidin-3-yl)-1-oxoisoindolin-4-yl)but-3-yn-2-yl)oxy)-N-(2-((R)-1-methylpyrrolidin-2-yl)-1H-pyrrolo[3,2-c]pyridin-6-yl)benzamide] | A (Category A: A ≥ 75% degradation) | A (Category A: A ≥ 75% degradation) | A (Category A: A ≥ 75% degradation)
CN1CCC[C@@H]1c1cc2cnc(NC(=O)c3ccc(CCC4CCN(c5cccc6c5C(=O)N(C5CCC(=O)NC5=O)C6=O)CC4)cc3)cc2[nH]1 (stereo partly drawn) [Example 4, 4-(2-(1-(2-(2,6-dioxopiperidin-3-yl)-1,3-dioxoisoindolin-4-yl)piperidin-4-yl)ethyl)-N-(2-((R)-1-methylpyrrolidin-2-yl)-1H-pyrrolo[3,2-c]pyridin-6-yl)benzamide] | B (Category B: 50% ≤ B < 75% degradation) | A (Category A: A ≥ 75% degradation) | A (Category A: A ≥ 75% degradation)
CN1CCC[C@@H]1c1[nH]c2cc(NC(=O)CCCCCCC#Cc3cccc4c3CN(C3CCC(=O)NC3=O)C4=O)ncc2c1Cl (stereo partly drawn) [Example 13, N-(3-chloro-2-((R)-1-methylpyrrolidin-2-yl)-1H-pyrrolo [3,2-c]pyridin-6-yl)-9-(2-(2,6-dioxopiperidin-3-yl)-1-oxoisoindolin-4-yl) non-8-ynamide] | A (Category A: A ≥ 75% degradation) | A (Category A: A ≥ 75% degradation) | A (Category A: A ≥ 75% degradation)
CN1CCC[C@@H]1c1cc2cnc(NC(=O)c3ccc(OCCC#Cc4cccc5c4CN(C4CCC(=O)NC4=O)C5=O)cc3)cc2[nH]1 (stereo partly drawn) [Example 19, 4-((4-(2-(2,6-dioxopiperidin-3-yl)-1-oxoisoindolin-4-yl)but-3-yn-1-yl)oxy)-N-(2-((R)-1-methylpyrrolidin-2-yl)-1H-pyrrolo[3,2-c]pyridin-6-yl)benzamide] | B (Category B: 50% ≤ B < 75% degradation) | A (Category A: A ≥ 75% degradation) | A (Category A: A ≥ 75% degradation)
CN1CCC[C@@H]1c1cc2cnc(NC(=O)c3cnc(N4CCC(C#Cc5cccc6c5CN(C5CCC(=O)NC5=O)C6=O)CC4)nc3)cc2[nH]1 (stereo partly drawn) [Example 65, 2-(4-((2-(2,6-dioxopiperidin-3-yl)-1-oxoisoindolin-4-yl)ethynyl)piperidin-1-yl)-N-(2-((R)-1-methylpyrrolidin-2-yl)-1H-pyrrolo[3,2-c]pyridin-6-yl)pyrimidine-5-carboxamide] | B (Category B: 50% ≤ B < 75% degradation) | B (Category B: 50% ≤ B < 75% degradation) | B (Category B: 50% ≤ B < 75% degradation)

Further lines, with some results ahead:

MLLT1 % Degradation @ 0.01 µM | MLLT1 % Degradation @ 0.1 µM | SMILES | MLLT 1 % Degradation @ 1 µM
A (Category A: A ≥ 75% degradation) | A (Category A: A ≥ 75% degradation) | CN1CCC[C@@H]1c1cc2cnc(NC(=O)c3ccc(-c4cnn(CCOC5CCN(c6cccc(C(=O)N[C@H]7CCC(=O)NC7=O)n6)CC5)c4)cc3)cc2[nH]1 [Example 61, N-((S)-2,6-dioxopiperidin-3-yl)-6-(4-(2-(4-(4-((2-((R)-1-methylpyrrolidin-2-yl)-1H-pyrrolo[3,2-c]pyridin-6-yl)carbamoyl)phenyl)-1H-pyrazol-1-yl)ethoxy)piperidin-1-yl)picolinamide] | B (Category B: 50% ≤ B < 75% degradation)
D (Category D: D < 25% degradation) | D (Category D: D < 25% degradation) | CN1CCC[C@@H]1c1cc2cnc(NC(=O)c3cccc(OCCCCCCCC#Cc4cccc5c4C(=O)N(C4CCC(=O)NC4=O)C5=O)c3)cc2[nH]1 (stereo partly drawn) [Example 26, 3-((9-(2-(2,6-dioxopiperidin-3-yl)-1,3-dioxoisoindolin-4-yl)non-8-yn-1-yl)oxy)-N-(2-((R)-1-methylpyrrolidin-2-yl)-1H-pyrrolo[3,2-c]pyridin-6-yl)benzamide] | C (Category C: 25% ≤ C < 50% degradation)
A (Category A: A ≥ 75% degradation) | A (Category A: A ≥ 75% degradation) | CN1CCC[C@@H]1c1[nH]c2cc(NC(=O)c3ccc(N4CCN(CC#Cc5cccc6c5CN(C5CCC(=O)NC5=O)C6=O)CC4)nc3)ncc2c1Cl (stereo partly drawn) [Example 72, N-(3-chloro-2-((R)-1-methylpyrrolidin-2-yl)-1H-pyrrolo[3,2-c]pyridin-6-yl)-6-(4-(3-(2-(2,6-dioxopiperidin-3-yl)-1-oxoisoindolin-4-yl)prop-2-yn-1-yl)piperazin-1-yl)nicotinamide] | C (Category C: 25% ≤ C < 50% degradation)
D (Category D: D < 25% degradation) | D (Category D: D < 25% degradation) | CN1CCC[C@@H]1c1cc2cnc(NC(=O)c3cnn(CCCC4CCN(c5cccc6c5C(=O)N(C5CCC(=O)NC5=O)C6=O)CC4)c3)cc2[nH]1 (stereo partly drawn) [Example 38, 1-(3-{1-[2-(2,6-dioxopiperidin-3-yl)-1,3-dioxoisoindol-4-yl]piperidin-4-yl}propyl)-N-{2-[(2R)-1-methylpyrrolidin-2-yl]-1H-pyrrolo[3,2-c]pyridin-6-yl}pyrazole-4-carboxamide] | C (Category C: 25% ≤ C < 50% degradation)
A (Category A: A ≥ 75% degradation) | A (Category A: A ≥ 75% degradation) | CN1CCC[C@@H]1c1cc2cnc(NC(=O)c3ccc(CCC#Cc4cccc5c4CN(C4CCC(=O)NC4=O)C5=O)cc3F)cc2[nH]1 (stereo partly drawn) [Example 54, 4-(4-(2-(2,6-dioxopiperidin-3-yl)-1-oxoisoindolin-4-yl)but-3-yn-1-yl)-2-fluoro-N-(2-((R)-1-methylpyrrolidin-2-yl)-1H-pyrrolo [3,2-c]pyridin-6-yl) benzamide] | B (Category B: 50% ≤ B < 75% degradation)

Source: EP4667467A1, “PROTAC DEGRADERS OF MLLT1 AND/OR MLLT3” (Dark Blue Therapeutics Ltd, priority 2024, dated 2025)
